These results are taken from patent US20250382332A1, “NOVEL ALPHA-FACTOR BASED PEPTIDES WITH ANTIFUNGAL ACTIVITY” (INVAIO SCIENCES, INC., priority 2024, published 2025).

The subject of the experiment is Botrytis cinerea (B05.10). Put plainly: Resazurin antifungal assay of 23 alpha-factor peptides (dimers, hybrids) towards Botrytis (Example 15, Table 6). In kind it is cell-based. The settings on record: resazurin assay, % inhibition of fungal growth, Botrytis cinerea B05.10; for Inhibition at 10 μM: peptide 10 μM; for Inhibition at 20 μM: peptide 20 μM; for Inhibition at 50 μM: peptide 50 μM; for Inhibition at 2.5 μM: peptide 2.5 μM; for Inhibition at 5 μM: peptide 5 μM. How it is done: The antifungal activity of […] alpha-factor peptide variants towards Botrytis was tested. Experimental design:
Peptides corresponding to SEQ ID NO: 261-264 and 401-420 were chemically synthesized using the solid-phase synthesis method and resuspended in water to a stock solution of 1 mM. The stock solution was aliquoted in cryovials and stored at −80° C.
The Botrytis cinerea culture (B05.10) isolate was acquired from the Centraalbureau voor Schimmelcultures, the Netherlands. The Botrytis fungus was propagated on 0.5% V8 agar plates (200 ml V8 Juice, 3 g CaCO3, 15 g agar, 800-ml millipore water) at 20° C., in a 12 h photoperiod for 21 days.
Fungal conidia were harvested by scraping a Botrytis plate flooded with 1 ml water with 0.1% Tween 80 solution. Conidia were then collected in a 50 ml falcon tube by passing the solution through a 40 micron filter. The solution was then centrifuged at 6000 rpm and the pellet was resuspended in 1 ml of 20% glycerol. The conidia concentration of the resulting solution was counted using a hemocytometer. The stock was diluted to […] using 20% glycerol and frozen in 100 μl aliquots in −80° C. until further use.
Peptides were tested for activity against Botrytis, using the resazurin assay. For this, fungal stock conidia was first diluted to 5000 conidia/well. 50 μl of the spore suspension was added to each well of the sterile 96-well clear bottom testing plate and mixed with 50 μl of peptide solutions to a final concentration of 100, 50, 20, 10, 5 and 2.5 μM. The plate was incubated for 24 h at 20° C. After 24 h, 10 μl of resazurin dye was added to the microtiter plate and incubated again for […]. Fluorescence was measured at 570/620 nm after 4 h of incubation with resazurin.
Growth inhibition was calculated by subtracting the fluorescence values of conidia only wells from sample wells and depicted as % inhibition of fungal growth. Four technical replicates were used for all treatments.
(The colour change of resazurin is a common sign of viable cells or microbes.)

By Inhibition is commonly meant the share of the control response that was lost under treatment.

Peptide text beside a SMILES is read from it. A value given as a limit tells only on which side of the number the result lay.

`CSCC[C@H](NC(=O)[C@@H]1CCCN1C(=O)[C@H](CCC(N)=O)NC(=O)CNC(=O)[C@@H]1CCCN1C(=O)[C@H](Cc1c[nH]c2ccccc12)NC(=O)[C@H](CC(C)C)NC(=O)[C@H](CCCNC(=N)N)NC(=O)[C@H](CC(C)C)NC(=O)[C@H](CO)NC(=O)[C@H](Cc1c[nH]cn1)NC(=O)[C@@H](N)CCCCN)C(=O)N[C@@H](Cc1ccc(O)cc1)C(=O)O` [compound 404] (H-KHSLRLWPGQPMY-OH; N-terminus and C-terminus assumed): the “Inhibition at 10 μM” value is below 90%, the “Inhibition at 20 μM” value was below 90% and the “Inhibition at 50 μM” value came out at 100%.
In the case of `CSCC[C@H](NC(=O)[C@@H]1CCCN1C(=O)[C@H](CCC(N)=O)NC(=O)CNC(=O)[C@@H]1CCCN1C(=O)[C@H](CCCNC(=N)N)NC(=O)[C@H](Cc1ccccc1)NC(=O)[C@H](CCCNC(=N)N)NC(=O)[C@H](CC(C)C)NC(=O)[C@H](Cc1c[nH]c2ccccc12)NC(=O)[C@H](Cc1c[nH]cn1)NC(=O)[C@@H](N)CCCCN)C(=O)N[C@@H](Cc1ccc(O)cc1)C(=O)O` [compound 410] (H-KHWLRFRPGQPMY-OH; N-terminus and C-terminus assumed), the “Inhibition at 10 μM” value is recorded as below 90%, the “Inhibition at 20 μM” value worked out at 100% and the “Inhibition at 50 μM” value came to 100%.
In the case of `CSCC[C@H](NC(=O)[C@@H]1CCCN1C(=O)[C@H](CCC(N)=O)NC(=O)CNC(=O)[C@H](CCCNC(=N)N)NC(=O)[C@H](CC(=O)O)NC(=O)[C@H](CC(C)C)NC(=O)[C@H](CCC(N)=O)NC(=O)[C@H](CC(C)C)NC(=O)[C@H](Cc1c[nH]c2ccccc12)NC(=O)[C@H](CCC(N)=O)NC(=O)[C@@H](N)Cc1c[nH]c2ccccc12)C(=O)N[C@@H](Cc1ccc(O)cc1)C(=O)O` [compound 406] (H-WQWLQLDRGQPMY-OH; N-terminus and C-terminus assumed), the “Inhibition at 50 μM” value was below 90%.
Regarding `CSCC[C@H](NC(=O)[C@@H]1CCCN1C(=O)[C@H](CCC(N)=O)NC(=O)CNC(=O)[C@H](C)NC(=O)[C@H](CCCNC(=N)N)NC(=O)[C@H](CC(C)C)NC(=O)[C@H](CCCNC(=N)N)NC(=O)CNC(=O)[C@H](Cc1c[nH]c2ccccc12)NC(=O)[C@H](Cc1c[nH]cn1)NC(=O)[C@H](CCCCN)NC(=O)CNC(=O)CNC(=O)CNC(=O)CNC(=O)[C@H](Cc1ccc(O)cc1)NC(=O)[C@H](CCSC)NC(=O)[C@@H]1CCCN1C(=O)[C@H](CCC(N)=O)NC(=O)CNC(=O)[C@H](C)NC(=O)[C@H](CCCNC(=N)N)NC(=O)[C@H](CC(C)C)NC(=O)[C@H](CCCNC(=N)N)NC(=O)CNC(=O)[C@H](Cc1c[nH]c2ccccc12)NC(=O)[C@H](Cc1c[nH]cn1)NC(=O)[C@@H](N)CCCCN)C(=O)N[C@@H](Cc1ccc(O)cc1)C(=O)O` [compound 261] (H-KHWGRLRAGQPMYGGGGKHWGRLRAGQPMY-OH; N-terminus and C-terminus assumed), the “Inhibition at 2.5 μM” value is recorded as below 90%, the “Inhibition at 5 μM” value is recorded as 99.3%, the “Inhibition at 10 μM” value stood at 100% and the “Inhibition at 20 μM” value stood at 100%. For the same molecule, the “Inhibition at 50 μM” value is reported as 100%.
Regarding `CSCC[C@H](NC(=O)[C@@H]1CCCN1C(=O)[C@H](CCC(N)=O)NC(=O)CNC(=O)[C@@H]1CCCN1C(=O)[C@H](Cc1c[nH]c2ccccc12)NC(=O)[C@H](Cc1ccccc1)NC(=O)[C@H](CCCNC(=N)N)NC(=O)[C@H](CC(C)C)NC(=O)[C@H](Cc1c[nH]c2ccccc12)NC(=O)[C@H](Cc1c[nH]cn1)NC(=O)[C@@H](N)CCCCN)C(=O)N[C@@H](Cc1ccc(O)cc1)C(=O)O` [compound 411] (H-KHWLRFWPGQPMY-OH; N-terminus and C-terminus assumed), the “Inhibition at 10 μM” value is listed as below 90%, the “Inhibition at 20 μM” value was below 90% and the “Inhibition at 50 μM” value amounted to 100%.
As to `CSCC[C@H](NC(=O)[C@@H]1CCCN1C(=O)[C@H](CCC(N)=O)NC(=O)CNC(=O)[C@@H]1CCCN1C(=O)[C@H](Cc1ccccc1)NC(=O)[C@H](CC(C)C)NC(=O)[C@@H](NC(=O)[C@H](CC(C)C)NC(=O)[C@H](Cc1c[nH]c2ccccc12)NC(=O)[C@H](Cc1c[nH]cn1)NC(=O)[C@@H](N)CCCCN)[C@@H](C)O)C(=O)N[C@@H](Cc1ccc(O)cc1)C(=O)O` [compound 405] (H-KHWLTLFPGQPMY-OH; N-terminus and C-terminus assumed), the “Inhibition at 50 μM” value is below 90%.
With `CSCC[C@H](NC(=O)[C@@H]1CCCN1C(=O)[C@H](CCC(N)=O)NC(=O)CNC(=O)[C@H](C)NC(=O)[C@H](CCCNC(=N)N)NC(=O)[C@H](CC(C)C)NC(=O)[C@H](CCCNC(=N)N)NC(=O)CNC(=O)[C@H](Cc1c[nH]c2ccccc12)NC(=O)[C@H](Cc1c[nH]cn1)NC(=O)[C@@H](N)CCCCN)C(=O)N[C@@H](Cc1ccc(O)cc1)C(=O)NCC(=O)NCC(=O)NCC(=O)NCC(=O)N[C@@H](Cc1ccc(O)cc1)C(=O)N[C@@H](CCSC)C(=O)N1CCC[C@H]1C(=O)N[C@@H](CCC(N)=O)C(=O)NCC(=O)N[C@@H](C)C(=O)N[C@@H](CCCNC(=N)N)C(=O)N[C@@H](CC(C)C)C(=O)N[C@@H](CCCNC(=N)N)C(=O)NCC(=O)N[C@@H](Cc1c[nH]c2ccccc12)C(=O)N[C@@H](Cc1c[nH]cn1)C(=O)N[C@@H](CCCCN)C(=O)O` [compound 264] (H-KHWGRLRAGQPMYGGGGYMPQGARLRGWHK-OH; N-terminus and C-terminus assumed), the “Inhibition at 2.5 μM” value is below 90%, the “Inhibition at 5 μM” value was found to be 96.2%, the “Inhibition at 10 μM” value is reported as 100% and the “Inhibition at 20 μM” value stood at 100%. Also, the “Inhibition at 50 μM” value is 100%.
Consider `CSCC[C@H](NC(=O)[C@@H]1CCCN1C(=O)[C@H](CCC(N)=O)NC(=O)CNC(=O)[C@H](Cc1c[nH]c2ccccc12)NC(=O)[C@H](CC(N)=O)NC(=O)[C@H](Cc1ccccc1)NC(=O)[C@H](CCC(N)=O)NC(=O)[C@H](CC(C)C)NC(=O)[C@H](CC(C)C)NC(=O)[C@H](Cc1c[nH]cn1)NC(=O)[C@@H](N)Cc1c[nH]c2ccccc12)C(=O)N[C@@H](Cc1ccc(O)cc1)C(=O)O` [compound 408] (H-WHLLQFNWGQPMY-OH; N-terminus and C-terminus assumed), for which the “Inhibition at 10 μM” value is recorded as below 90%, the “Inhibition at 20 μM” value is below 90% and the “Inhibition at 50 μM” value was found to be 100%.
